The source of these data is ChEMBL document CHEMBL4507319 (2021).

Assay [1] addresses T1, Serine/threonine-protein kinase BRSK1 (Homo sapiens) (UniProt Q8TDC3).
T1 sequence (whole entry): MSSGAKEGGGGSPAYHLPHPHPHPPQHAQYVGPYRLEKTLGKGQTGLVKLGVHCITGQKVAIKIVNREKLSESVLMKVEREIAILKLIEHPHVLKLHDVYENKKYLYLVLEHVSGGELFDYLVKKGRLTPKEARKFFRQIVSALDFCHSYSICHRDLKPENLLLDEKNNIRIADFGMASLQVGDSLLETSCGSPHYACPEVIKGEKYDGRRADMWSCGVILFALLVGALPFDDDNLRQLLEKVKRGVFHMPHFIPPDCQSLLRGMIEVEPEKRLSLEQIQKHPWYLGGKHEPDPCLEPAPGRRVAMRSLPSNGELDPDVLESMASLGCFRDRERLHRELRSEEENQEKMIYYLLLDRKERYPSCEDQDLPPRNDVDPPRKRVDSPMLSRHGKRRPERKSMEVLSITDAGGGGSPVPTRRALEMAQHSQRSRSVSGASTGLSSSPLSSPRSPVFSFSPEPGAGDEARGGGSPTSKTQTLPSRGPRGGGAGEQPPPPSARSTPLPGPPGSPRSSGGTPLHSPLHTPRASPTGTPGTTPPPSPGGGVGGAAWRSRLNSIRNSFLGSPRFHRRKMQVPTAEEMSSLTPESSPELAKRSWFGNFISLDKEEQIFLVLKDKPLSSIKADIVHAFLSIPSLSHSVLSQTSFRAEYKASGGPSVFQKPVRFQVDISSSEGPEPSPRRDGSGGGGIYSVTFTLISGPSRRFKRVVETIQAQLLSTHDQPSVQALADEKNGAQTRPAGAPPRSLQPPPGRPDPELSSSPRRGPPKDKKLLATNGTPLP
In words: BrSK1(h) Eurofins kinase panel. The following applies: Compound concentration 1.0 uM.

The target in assay [2] is CDK4/Cyclin D3 (Homo sapiens) (UniProt P11802+P30281). In words: CDK4/cyclinD3(h) Eurofins kinase panel. Conditions: Compound concentration 1.0 uM. It counts as protein-complex assay.
Assay [3] addresses Dual specificity protein kinase CLK2 (Homo sapiens) (UniProt P49760). In words: CLK2(h) Eurofins kinase panel. Conditions: Compound concentration 1.0 uM.
In assay [4] the target is T2, Dual specificity tyrosine-phosphorylation-regulated kinase 2 (Homo sapiens) (UniProt Q92630).
T2 sequence (whole entry): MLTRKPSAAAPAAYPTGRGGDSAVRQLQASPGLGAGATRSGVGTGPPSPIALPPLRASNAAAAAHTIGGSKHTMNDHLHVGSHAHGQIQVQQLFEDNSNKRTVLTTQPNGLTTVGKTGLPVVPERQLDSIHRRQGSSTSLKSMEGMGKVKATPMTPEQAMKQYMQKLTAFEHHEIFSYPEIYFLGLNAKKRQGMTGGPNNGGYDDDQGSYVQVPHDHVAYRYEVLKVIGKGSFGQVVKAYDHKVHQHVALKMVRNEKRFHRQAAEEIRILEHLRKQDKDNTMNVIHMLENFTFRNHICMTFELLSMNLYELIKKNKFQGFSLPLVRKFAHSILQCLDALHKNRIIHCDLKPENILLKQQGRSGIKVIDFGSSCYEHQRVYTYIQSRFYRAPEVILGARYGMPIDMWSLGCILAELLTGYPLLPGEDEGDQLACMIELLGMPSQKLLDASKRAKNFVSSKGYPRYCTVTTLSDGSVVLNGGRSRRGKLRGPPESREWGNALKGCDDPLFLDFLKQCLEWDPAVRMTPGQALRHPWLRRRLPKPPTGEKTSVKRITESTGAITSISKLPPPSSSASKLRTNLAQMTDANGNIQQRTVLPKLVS
Description: DYRK2(h) Eurofins kinase panel. The following applies: Compound concentration 1.0 uM.

In assay [5] the target is Homeodomain-interacting protein kinase 2 (Homo sapiens) (UniProt Q9H2X6). Description: HIPK2(h) Eurofins kinase panel. Conditions: Compound concentration 1.0 uM.
Sequence of Homeodomain-interacting protein kinase 2 (Homo sapiens) (Q9H2X6 whole entry, looked up): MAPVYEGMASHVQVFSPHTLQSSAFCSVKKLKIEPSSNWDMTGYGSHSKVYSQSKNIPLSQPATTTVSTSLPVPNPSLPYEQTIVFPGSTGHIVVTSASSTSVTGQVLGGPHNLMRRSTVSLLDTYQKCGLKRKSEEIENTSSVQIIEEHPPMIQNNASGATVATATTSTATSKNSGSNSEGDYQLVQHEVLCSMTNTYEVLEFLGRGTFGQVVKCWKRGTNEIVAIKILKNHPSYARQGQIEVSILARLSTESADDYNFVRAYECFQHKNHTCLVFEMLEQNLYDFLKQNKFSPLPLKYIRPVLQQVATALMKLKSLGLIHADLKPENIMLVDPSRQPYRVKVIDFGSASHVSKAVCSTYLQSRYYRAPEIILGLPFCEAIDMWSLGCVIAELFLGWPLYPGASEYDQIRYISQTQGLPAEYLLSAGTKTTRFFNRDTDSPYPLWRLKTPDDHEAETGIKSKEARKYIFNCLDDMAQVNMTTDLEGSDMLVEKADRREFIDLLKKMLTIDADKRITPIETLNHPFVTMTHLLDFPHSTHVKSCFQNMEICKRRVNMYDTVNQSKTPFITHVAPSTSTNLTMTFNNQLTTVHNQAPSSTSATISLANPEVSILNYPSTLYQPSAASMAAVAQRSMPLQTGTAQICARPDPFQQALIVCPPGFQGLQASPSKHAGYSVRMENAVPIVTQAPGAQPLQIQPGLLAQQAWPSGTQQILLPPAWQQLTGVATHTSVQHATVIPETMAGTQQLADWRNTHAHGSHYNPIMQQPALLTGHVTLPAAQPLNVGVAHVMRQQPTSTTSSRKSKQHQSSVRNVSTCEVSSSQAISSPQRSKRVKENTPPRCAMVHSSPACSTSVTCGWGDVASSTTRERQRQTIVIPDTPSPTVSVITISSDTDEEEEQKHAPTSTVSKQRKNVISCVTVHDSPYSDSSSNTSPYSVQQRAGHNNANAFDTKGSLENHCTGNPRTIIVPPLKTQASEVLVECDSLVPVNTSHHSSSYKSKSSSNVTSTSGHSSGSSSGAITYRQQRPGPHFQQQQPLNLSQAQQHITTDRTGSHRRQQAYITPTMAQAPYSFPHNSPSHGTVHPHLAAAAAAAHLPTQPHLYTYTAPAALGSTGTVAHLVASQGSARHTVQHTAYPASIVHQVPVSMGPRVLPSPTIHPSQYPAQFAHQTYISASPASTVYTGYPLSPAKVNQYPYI
In assay [6] the target is T3, Inhibitor of nuclear factor kappa-B kinase subunit alpha (Homo sapiens) (UniProt O15111).
T3 sequence (whole entry): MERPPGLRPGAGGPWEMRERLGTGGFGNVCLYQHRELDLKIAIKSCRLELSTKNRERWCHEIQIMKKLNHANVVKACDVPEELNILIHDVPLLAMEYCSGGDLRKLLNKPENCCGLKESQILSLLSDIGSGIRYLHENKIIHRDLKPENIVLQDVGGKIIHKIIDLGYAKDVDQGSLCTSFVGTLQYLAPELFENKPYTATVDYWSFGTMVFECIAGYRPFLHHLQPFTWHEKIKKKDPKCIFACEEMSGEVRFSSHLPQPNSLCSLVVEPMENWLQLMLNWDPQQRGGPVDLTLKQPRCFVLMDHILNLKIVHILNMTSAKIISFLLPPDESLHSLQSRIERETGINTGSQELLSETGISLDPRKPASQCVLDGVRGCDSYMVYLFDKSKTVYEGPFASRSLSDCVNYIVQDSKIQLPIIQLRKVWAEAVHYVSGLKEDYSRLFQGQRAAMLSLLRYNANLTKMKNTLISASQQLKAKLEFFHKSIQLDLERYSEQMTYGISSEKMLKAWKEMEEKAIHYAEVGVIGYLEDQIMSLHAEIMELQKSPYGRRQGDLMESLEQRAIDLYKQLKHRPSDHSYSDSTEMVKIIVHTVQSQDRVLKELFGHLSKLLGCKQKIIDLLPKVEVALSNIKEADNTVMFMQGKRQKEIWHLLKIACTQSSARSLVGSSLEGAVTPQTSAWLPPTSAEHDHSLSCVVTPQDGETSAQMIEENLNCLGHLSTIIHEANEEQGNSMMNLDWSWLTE
Description: IKKalpha(h) Eurofins kinase panel. Conditions: Compound concentration 1.0 uM.

The target in assay [7] is Serine/threonine-protein kinase NIM1 (Homo sapiens) (UniProt Q8IY84). In words: NIM1(h) Eurofins kinase panel. Conditions: Compound concentration 1.0 uM.
Sequence of Serine/threonine-protein kinase NIM1 (Homo sapiens) (Q8IY84 whole entry): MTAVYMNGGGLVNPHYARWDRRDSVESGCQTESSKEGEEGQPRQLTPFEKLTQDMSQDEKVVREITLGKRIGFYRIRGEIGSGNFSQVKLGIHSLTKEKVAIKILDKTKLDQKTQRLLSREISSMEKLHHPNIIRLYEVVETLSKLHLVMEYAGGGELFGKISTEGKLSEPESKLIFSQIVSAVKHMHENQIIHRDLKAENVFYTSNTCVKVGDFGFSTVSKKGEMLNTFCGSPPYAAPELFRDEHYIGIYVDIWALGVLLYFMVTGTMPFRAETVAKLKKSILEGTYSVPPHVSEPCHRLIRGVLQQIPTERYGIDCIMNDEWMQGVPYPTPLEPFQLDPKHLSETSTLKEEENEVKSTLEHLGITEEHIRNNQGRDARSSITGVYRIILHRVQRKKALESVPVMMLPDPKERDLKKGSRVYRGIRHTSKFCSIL
The target in assay [8] is Serine/threonine-protein kinase PAK 6 (Homo sapiens) (UniProt Q9NQU5). Description: PAK6(h) Eurofins kinase panel. The following applies: Compound concentration 1.0 uM.
Sequence of Serine/threonine-protein kinase PAK 6 (Homo sapiens) (Q9NQU5 whole entry, looked up): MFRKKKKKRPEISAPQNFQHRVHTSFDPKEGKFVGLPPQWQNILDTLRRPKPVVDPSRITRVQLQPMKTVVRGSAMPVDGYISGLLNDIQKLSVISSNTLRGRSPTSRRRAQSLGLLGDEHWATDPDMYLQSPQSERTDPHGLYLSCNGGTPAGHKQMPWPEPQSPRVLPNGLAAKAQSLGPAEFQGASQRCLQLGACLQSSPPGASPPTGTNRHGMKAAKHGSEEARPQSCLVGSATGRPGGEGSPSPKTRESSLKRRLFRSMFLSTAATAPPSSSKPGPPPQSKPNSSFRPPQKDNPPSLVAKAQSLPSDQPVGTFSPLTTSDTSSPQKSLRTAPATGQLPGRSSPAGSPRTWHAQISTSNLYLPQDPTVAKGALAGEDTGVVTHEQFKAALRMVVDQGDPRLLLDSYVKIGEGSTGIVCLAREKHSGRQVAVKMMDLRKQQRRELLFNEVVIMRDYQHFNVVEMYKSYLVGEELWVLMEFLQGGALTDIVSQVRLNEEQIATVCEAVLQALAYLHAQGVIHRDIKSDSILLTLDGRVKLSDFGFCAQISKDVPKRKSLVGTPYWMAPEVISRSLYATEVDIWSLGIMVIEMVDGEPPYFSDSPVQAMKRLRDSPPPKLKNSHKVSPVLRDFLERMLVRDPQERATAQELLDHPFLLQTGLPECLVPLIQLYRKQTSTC
The target of assay [9] is Serine/threonine-protein kinase MARK2 (Homo sapiens) (UniProt Q7KZI7). In words: PAR-1Balpha(h) Eurofins kinase panel. The following applies: Compound concentration 1.0 uM.
Sequence of Serine/threonine-protein kinase MARK2 (Homo sapiens) (Q7KZI7 whole entry): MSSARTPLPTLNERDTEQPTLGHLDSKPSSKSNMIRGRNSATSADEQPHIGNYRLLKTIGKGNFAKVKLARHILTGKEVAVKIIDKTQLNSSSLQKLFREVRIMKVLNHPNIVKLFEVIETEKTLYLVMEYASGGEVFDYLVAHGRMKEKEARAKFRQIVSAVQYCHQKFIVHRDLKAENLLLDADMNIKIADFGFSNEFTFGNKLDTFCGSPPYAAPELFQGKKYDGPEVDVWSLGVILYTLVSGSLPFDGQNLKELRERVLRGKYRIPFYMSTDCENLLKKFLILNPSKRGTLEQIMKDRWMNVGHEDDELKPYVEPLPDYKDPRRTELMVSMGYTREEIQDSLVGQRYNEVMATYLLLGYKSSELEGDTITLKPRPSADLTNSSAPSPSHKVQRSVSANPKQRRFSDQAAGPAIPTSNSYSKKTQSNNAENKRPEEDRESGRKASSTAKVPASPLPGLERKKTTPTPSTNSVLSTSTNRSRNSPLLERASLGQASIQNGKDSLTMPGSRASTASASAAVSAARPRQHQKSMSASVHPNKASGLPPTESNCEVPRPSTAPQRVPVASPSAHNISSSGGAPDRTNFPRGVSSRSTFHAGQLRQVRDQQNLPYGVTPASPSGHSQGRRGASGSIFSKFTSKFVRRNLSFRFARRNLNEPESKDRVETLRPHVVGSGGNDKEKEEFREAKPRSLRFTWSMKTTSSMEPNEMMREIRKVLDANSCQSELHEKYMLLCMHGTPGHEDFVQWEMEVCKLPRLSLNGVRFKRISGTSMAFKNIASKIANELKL
In assay [10] the target is Mitogen-activated protein kinase 11 (Homo sapiens) (UniProt Q15759). In words: SAPK2b(h) Eurofins kinase panel. The following applies: Compound concentration 1.0 uM.
Sequence of Mitogen-activated protein kinase 11 (Homo sapiens) (Q15759 whole entry): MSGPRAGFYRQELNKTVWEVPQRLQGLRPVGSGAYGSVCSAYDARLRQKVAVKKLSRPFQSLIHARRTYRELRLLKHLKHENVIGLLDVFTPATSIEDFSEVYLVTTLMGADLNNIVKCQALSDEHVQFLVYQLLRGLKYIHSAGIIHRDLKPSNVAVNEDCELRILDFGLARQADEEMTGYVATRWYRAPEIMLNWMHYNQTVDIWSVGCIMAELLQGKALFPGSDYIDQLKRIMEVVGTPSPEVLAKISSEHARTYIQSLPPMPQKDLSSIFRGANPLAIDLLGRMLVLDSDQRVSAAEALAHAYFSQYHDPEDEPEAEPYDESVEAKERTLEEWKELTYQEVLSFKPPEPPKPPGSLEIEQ
The target in assay [11] is Serine/threonine-protein kinase 33 (Homo sapiens) (UniProt Q9BYT3). Description: STK33(h) Eurofins kinase panel. Conditions: Compound concentration 1.0 uM.
Sequence of Serine/threonine-protein kinase 33 (Homo sapiens) (Q9BYT3 whole entry, looked up): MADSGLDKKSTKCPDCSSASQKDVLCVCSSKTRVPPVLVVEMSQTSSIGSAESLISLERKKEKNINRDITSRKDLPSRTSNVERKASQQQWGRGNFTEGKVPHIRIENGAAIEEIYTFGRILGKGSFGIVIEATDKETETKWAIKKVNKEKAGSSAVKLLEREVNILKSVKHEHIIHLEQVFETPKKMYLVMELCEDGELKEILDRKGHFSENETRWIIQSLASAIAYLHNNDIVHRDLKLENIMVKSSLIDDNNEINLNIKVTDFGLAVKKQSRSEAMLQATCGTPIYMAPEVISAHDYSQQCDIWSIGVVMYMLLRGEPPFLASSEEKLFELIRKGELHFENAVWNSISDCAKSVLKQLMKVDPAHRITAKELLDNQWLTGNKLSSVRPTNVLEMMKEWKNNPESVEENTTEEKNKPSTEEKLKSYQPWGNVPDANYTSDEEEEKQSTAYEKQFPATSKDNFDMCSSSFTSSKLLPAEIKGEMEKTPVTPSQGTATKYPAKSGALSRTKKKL
Assay [12] deals with Rec1. Description: REC-1 cell line Proliferation assay. It counts as functional, Homo sapiens. The following applies: time 3 day.
Assay [13] concerns SW480. In words: SW480 cell line Proliferation assay. The class given is functional, Homo sapiens. Conditions: time 3 day.
Assay [14] concerns SNU-398. In words: Snu398 cell line Proliferation assay. The class given is functional, Homo sapiens. Conditions: time 3 day.
Assay [15] concerns the target T4, 5'-AMP-activated protein kinase catalytic subunit alpha-2 (Homo sapiens, UniProt P54646).
Target sequence in this assay (P54646 whole entry): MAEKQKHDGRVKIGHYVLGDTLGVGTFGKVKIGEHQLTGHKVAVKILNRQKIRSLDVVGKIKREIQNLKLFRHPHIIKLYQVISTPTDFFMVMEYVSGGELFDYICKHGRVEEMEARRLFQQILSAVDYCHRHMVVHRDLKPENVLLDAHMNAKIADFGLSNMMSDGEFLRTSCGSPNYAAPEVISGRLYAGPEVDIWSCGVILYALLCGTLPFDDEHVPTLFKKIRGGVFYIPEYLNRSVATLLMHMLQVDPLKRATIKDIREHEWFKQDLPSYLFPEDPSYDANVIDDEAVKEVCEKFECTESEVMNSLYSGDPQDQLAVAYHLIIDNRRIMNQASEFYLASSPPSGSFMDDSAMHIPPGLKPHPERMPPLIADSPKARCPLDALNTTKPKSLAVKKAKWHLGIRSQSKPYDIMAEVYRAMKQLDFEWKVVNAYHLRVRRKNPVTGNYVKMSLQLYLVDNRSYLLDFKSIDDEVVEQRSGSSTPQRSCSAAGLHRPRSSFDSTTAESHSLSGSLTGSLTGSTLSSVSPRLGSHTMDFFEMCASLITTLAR
Assay [16] has as its target T4, 5'-AMP-activated protein kinase catalytic subunit alpha-2. The following applies: Compound concentration 1.0 uM.

Sequence of Dual specificity protein kinase CLK2 (Homo sapiens) (P49760 whole entry, looked up): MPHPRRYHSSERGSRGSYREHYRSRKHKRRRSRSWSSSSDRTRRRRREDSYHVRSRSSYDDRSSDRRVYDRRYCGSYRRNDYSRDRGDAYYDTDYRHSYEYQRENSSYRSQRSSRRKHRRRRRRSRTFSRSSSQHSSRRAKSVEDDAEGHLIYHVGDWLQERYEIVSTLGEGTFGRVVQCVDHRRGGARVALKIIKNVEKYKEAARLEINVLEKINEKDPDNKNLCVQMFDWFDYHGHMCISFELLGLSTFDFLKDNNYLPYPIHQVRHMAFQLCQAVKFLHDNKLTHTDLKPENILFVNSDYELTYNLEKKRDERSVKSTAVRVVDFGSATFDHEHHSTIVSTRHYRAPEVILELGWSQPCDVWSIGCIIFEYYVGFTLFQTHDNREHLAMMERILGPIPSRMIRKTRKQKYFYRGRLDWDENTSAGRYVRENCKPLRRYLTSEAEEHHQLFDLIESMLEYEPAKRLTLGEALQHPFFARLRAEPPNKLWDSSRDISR

As usually defined, the IC50 is the concentration that gives 50% inhibition. Take `CCc1ccccc1C(=O)Nc1n[nH]c2c(C)c(F)c(C3C(C#N)=C(C)N(C)C(C)=C3C#N)cc12` [BAY-3827]: the % residual kinase activity was 64% in assay [1]; 112% in assay [2]; 93% in assay [3]; 100% in assay [4]; 100% in assay [5]; 107% in assay [6]. The % residual kinase activity was 93% in assay [7]; 86% in [8]; 32% in [9]; 110% in assay [10]; 55% in assay [11]; 0% in assay [16]. Moreover, the results for the “Cell Proliferation IC50” value in assay [12], in assay [13] and in assay [14] were 3.3 µM, 27.8 µM and 7.3 µM, respectively. This compound also returned a half-inhibitory concentration (IC50) in assay [15] of 0.007 µM.
